Source: patent US10945435B2, “Imidazopyrimidine derivatives with sulfur containing phenyl and pyridyl substituents” (SYNGENTA PARTICIPATIONS AG, priority 2017, dated 2021)

Legend:
Assay type in all cases: in vivo
[1] = tested on: Spodoptera littoralis (Egyptian Cotton Leaf Worm); assay: Example B16 Spodoptera littoralis feeding/contact activity; conditions: foliar, 72 h, application rate of 200 ppm, L1 larvae on sprayed cotton leaf discs, 3 days after infestation
Experimental: Spodoptera littoralis (Egyptian Cotton Leaf Worm): Feeding/Contact Activity
Cotton leaf discs were placed onto agar in 24-well microtiter plates and sprayed with aqueous test solutions prepared from 10,000 ppm DMSO stock solutions. After drying the leaf discs were infested with five L1 larvae. The samples were assessed for mortality 3 days after infestation.

[2] = tested on: Spodoptera littoralis (Egyptian Cotton Leaf Worm); assay: Example B14 Spodoptera littoralis anti-feeding activity; conditions: foliar, 72 h, application rate of 200 ppm, L1 larvae on sprayed cotton leaf discs, 3 days after infestation, read-out: control (anti-feeding effect)
Experimental: Spodoptera littoralis (Egyptian Cotton Leaf Worm): Anti-Feeding Activity
Cotton leaf discs were placed onto agar in 24-well microtiter plates and sprayed with aqueous test solutions prepared from 10,000 ppm DMSO stock solutions. After drying the leaf discs were infested with five L1 larvae. The samples were assessed for anti-feeding effect in comparison to untreated samples 3 days after infestation. Control of Spodoptera littoralis by a test sample is given when the anti-feedant effect is higher than the untreated sample.

[3] = tested on: Diabrotica balteata (Corn Root Worm); assay: Example B2 Diabrotica balteata mortality and growth inhibition; conditions: 96 h, application rate of 200 ppm, L2 larvae on sprayed maize sprouts, 4 days after infestation, read-out: effect in at least one of the two categories (mortality or growth inhibition)
Experimental: Diabrotica balteata (Corn Root Worm)
Maize sprouts placed onto an agar layer in 24-well microtiter plates were treated with aqueous test solutions prepared from 10,000 ppm DMSO stock solutions by spraying. After drying, the plates were infested with L2 larvae (6 to 10 per well). The samples were assessed for mortality and growth inhibition in comparison to untreated samples 4 days after infestation.

[4] = tested on: Plutella xylostella (Diamond Back Moth); assay: Example B11 Plutella xylostella growth inhibition activity; conditions: 120 h, application rate of 200 ppm, L2 larvae on treated artificial diet, 5 days after infestation
Experimental: Plutella xylostella (Diamond Back Moth): Growth Inhibition Activity
24-well microtiter plates with artificial diet were treated with aqueous test solutions prepared from 10,000 ppm DMSO stock solutions by pipetting. After drying, the plates were infested with L2 larvae (10 to 15 per well). The samples were assessed for growth inhibition in comparison to untreated samples 5 days after infestation. Control of Plutella xylostella by a test sample is given when the growth inhibition is higher than the untreated sample.

[5] = tested on: Bemisia tabaci (Cotton White Fly); assay: Example B1 Bemisia tabaci feeding/contact activity; conditions: foliar, 144 h, application rate of 200 ppm, adult white flies on sprayed cotton leaf discs, 6 days after incubation
Experimental: Bemisia tabaci (Cotton White Fly): Feeding/Contact Activity
Cotton leaf discs were placed on agar in 24-well microtiter plates and sprayed with aqueous test solutions prepared from 10,000 ppm DMSO stock solutions. After drying the leaf discs were infested with adult white flies. The samples were checked for mortality 6 days after incubation.

[6] = tested on: Diabrotica balteata (Corn Root Worm); assay: Example B4 Diabrotica balteata mortality; conditions: 96 h, application rate of 200 ppm, L2 larvae on sprayed maize sprouts, 4 days after infestation
Experimental: Diabrotica Balteata (Corn Root Worm):
Maize sprouts placed onto an agar layer in 24-well microtiter plates were treated with aqueous test solutions prepared from 10,000 ppm DMSO stock solutions by spraying. After drying, the plates were infested with L2 larvae (6 to 10 per well). The samples were assessed for mortality 4 days after infestation.

[7] = tested on: Plutella xylostella (Diamond Back Moth); assay: Example B12 Plutella xylostella feeding/contact activity; conditions: 120 h, application rate of 200 ppm, L2 larvae on treated artificial diet, 5 days after infestation
Experimental: Plutella xylostella (Diamond Back Moth): Feeding/Contact Activity
24-well microtiter plates with artificial diet were treated with aqueous test solutions prepared from 10,000 ppm DMSO stock solutions by pipetting. After drying, the plates were infested with L2 larvae (10 to 15 per well). The samples were assessed for mortality 5 days after infestation.

[8] = tested on: Euschistus heros (Neotropical Brown Stink Bug); assay: Example B5 Euschistus heros mortality and growth inhibition; conditions: 120 h, application rate of 200 ppm, N2 nymphs on sprayed soybean leaves, 5 days after infestation, read-out: effect in at least one of the two categories (mortality or growth inhibition)
Experimental: Euschistus heros (Neotropical Brown Stink Bug)
Soybean leaves on agar in 24-well microtiter plates were sprayed with aqueous test solutions prepared from 10,000 ppm DMSO stock solutions. After drying the leaves were infested with N2 nymphs. The samples were assessed for mortality and growth inhibition in comparison to untreated samples 5 days after infestation.

[9] = tested on: Myzus persicae (Green Peach Aphid); assay: Example B9 Myzus persicae feeding/contact activity; conditions: foliar, 144 h, application rate of 200 ppm, mixed-age aphids on sprayed sunflower leaf discs, 6 days after infestation
Experimental: Myzus persicae (Green Peach Aphid): Feeding/Contact Activity
Sunflower leaf discs were placed onto agar in a 24-well microtiter plate and sprayed with aqueous test solutions prepared from 10,000 ppm DMSO stock solutions. After drying, the leaf discs were infested with an aphid population of mixed ages. The samples were assessed for mortality 6 days after infestation.

[10] = tested on: Euschistus heros (Neotropical Brown Stink Bug); assay: Example B7 Euschistus heros feeding/contact activity; conditions: 120 h, application rate of 200 ppm, N2 nymphs on sprayed soybean leaves, 5 days after infestation
Experimental: Euschistus heros (Neotropical Brown Stink Bug): Feeding/Contact Activity
Soybean leaves on agar in 24-well microtiter plates were sprayed with aqueous test solutions prepared from 10,000 ppm DMSO stock solutions. After drying the leaves were infested with N2 nymphs. The samples were assessed for mortality 5 days after infestation.

[11] = tested on: Plutella xylostella (Diamond Back Moth); assay: Example B13 Plutella xylostella mortality and growth inhibition; conditions: 120 h, application rate of 200 ppm, L2 larvae on treated artificial diet, 5 days after infestation, read-out: effect in at least one of the two categories (mortality or growth inhibition)
Experimental: Plutella xylostella (Diamond Back Moth)
24-well microtiter plates with artificial diet were treated with aqueous test solutions prepared from 10,000 ppm DMSO stock solutions by pipetting. After drying, the plates were infested with L2 larvae (10 to 15 per well). The samples were assessed for mortality and growth inhibition in comparison to untreated samples 5 days after infestation.

[12] = tested on: Myzus persicae (Green Peach Aphid); assay: Example B10 Myzus persicae systemic activity; conditions: 144 h, test rate of 24 ppm, roots of infested pea seedlings in test solution, 6 days
Experimental: Myzus persicae (Green Peach Aphid). Systemic Activity
Roots of pea seedlings infested with an aphid population of mixed ages were placed directly into aqueous test solutions prepared from 10,000 DMSO stock solutions. The samples were assessed for mortality 6 days after placing seedlings into test solutions.

CCS(=O)(=O)c1cc(OCC(F)(F)F)cnc1-c1cn2cnc(SC(F)(F)F)cc2n1 [Compound P1, 2-[3-ethylsulfonyl-5-(2,2,2-trifluoroethoxy)-2-pyridyl]-7-(trifluoromethylsulfanyl)imidazo[1,2-c]pyrimidine]
≥ 80%: mortality at 200 ppm [1] | pest or weed control at 200 ppm [2] | percent effect (mortality or growth inhibition) at 200 ppm [3] | inhibition at 200 ppm [4] | mortality at 200 ppm [5] | mortality at 200 ppm [6] | mortality at 200 ppm [7] | percent effect (mortality or growth inhibition) at 200 ppm [8] | mortality at 200 ppm [9] | mortality at 200 ppm [10] | percent effect (mortality or growth inhibition) at 200 ppm [11]

CCS(=O)(=O)c1cc(OC(C)C)cnc1-c1cn2cnc(SC(F)(F)F)cc2n1 [Compound P2, 2-(3-ethylsulfonyl-5-isopropoxy-2-pyridyl)-7-(trifluoromethylsulfanyl)imidazo[1,2-c]pyrimidine]
≥ 80%: mortality at 200 ppm [1] | pest or weed control at 200 ppm [2] | percent effect (mortality or growth inhibition) at 200 ppm [3] | inhibition at 200 ppm [4] | mortality at 200 ppm [6] | mortality at 200 ppm [7] | percent effect (mortality or growth inhibition) at 200 ppm [8] | mortality at 200 ppm [10] | percent effect (mortality or growth inhibition) at 200 ppm [11]

CCS(=O)(=O)c1cc(OCC(F)F)cnc1-c1cn2cnc([S+]([O-])C(F)(F)F)cc2n1 (stereo not drawn) [Compound P3, 2-[5-(2,2-difluoroethoxy)-3-ethylsulfonyl-2-pyridyl]-7-(trifluoromethylsulfinyl)imidazo[1,2-c]pyrimidine]
≥ 80%: percent effect (mortality or growth inhibition) at 200 ppm [3] | inhibition at 200 ppm [4] | mortality at 200 ppm [6] | percent effect (mortality or growth inhibition) at 200 ppm [8] | mortality at 200 ppm [9] | mortality at 200 ppm [10] | percent effect (mortality or growth inhibition) at 200 ppm [11]

CCS(=O)(=O)c1cc(OCC(F)(F)F)cnc1-c1cn2cnc(C(F)(F)F)cc2n1 [Compound P6, 2-[3-ethylsulfonyl-5-(2,2,2-trifluoroethoxy)-2-pyridyl]-7-(trifluoromethyl)imidazo[1,2-c]pyrimidine]
≥ 80%: mortality at 200 ppm [1] | pest or weed control at 200 ppm [2] | percent effect (mortality or growth inhibition) at 200 ppm [3] | inhibition at 200 ppm [4] | mortality at 200 ppm [5] | mortality at 200 ppm [6] | mortality at 200 ppm [7] | mortality at 24 ppm [12] | percent effect (mortality or growth inhibition) at 200 ppm [8] | mortality at 200 ppm [9] | mortality at 200 ppm [10] | percent effect (mortality or growth inhibition) at 200 ppm [11]

CCS(=O)(=O)c1cc(OC(C)C)cnc1-c1cn2cnc(C(F)(F)F)cc2n1 [Compound P7, 2-(3-ethylsulfonyl-5-isopropoxy-2-pyridyl)-7-(trifluoromethyl)imidazo[1,2-c]pyrimidine]
≥ 80%: mortality at 200 ppm [1] | pest or weed control at 200 ppm [2] | percent effect (mortality or growth inhibition) at 200 ppm [3] | inhibition at 200 ppm [4] | mortality at 200 ppm [6] | mortality at 200 ppm [7] | percent effect (mortality or growth inhibition) at 200 ppm [8] | mortality at 200 ppm [9] | mortality at 200 ppm [10] | percent effect (mortality or growth inhibition) at 200 ppm [11]

CCS(=O)(=O)c1cc(OCCSC)cnc1-c1cn2cnc(C(F)(F)F)cc2n1 [Compound P15, 2-[3-ethylsulfonyl-5-(2-methylsulfanylethoxy)-2-pyridyl]-7-(trifluoromethyl)imidazo[1,2-c]pyrimidine]
≥ 80%: mortality at 200 ppm [5] | mortality at 24 ppm [12] | percent effect (mortality or growth inhibition) at 200 ppm [8] | mortality at 200 ppm [9] | mortality at 200 ppm [10]

CCS(=O)(=O)c1cc(OC(F)F)cnc1-c1cn2cnc(C(F)(F)F)cc2n1 [Compound P21, 2-[5-(difluoromethoxy)-3-ethylsulfonyl-2-pyridyl]-7-(trifluoromethyl)imidazo[1,2-c]pyrimidine]
≥ 80%: mortality at 200 ppm [1] | pest or weed control at 200 ppm [2] | percent effect (mortality or growth inhibition) at 200 ppm [3] | inhibition at 200 ppm [4] | mortality at 200 ppm [5] | mortality at 200 ppm [6] | mortality at 200 ppm [7] | percent effect (mortality or growth inhibition) at 200 ppm [8] | mortality at 200 ppm [9] | mortality at 200 ppm [10] | percent effect (mortality or growth inhibition) at 200 ppm [11]

CCS(=O)(=O)c1cc(OCS(C)(=O)=O)cnc1-c1cn2cnc(C(F)(F)F)cc2n1 [Compound P23, 2-[3-ethylsulfonyl-5-(methylsulfonylmethoxy)-2-pyridyl]-7-(trifluoromethyl)imidazo[1,2-c]pyrimidine]
≥ 80%: mortality at 24 ppm [12] | percent effect (mortality or growth inhibition) at 200 ppm [8] | mortality at 200 ppm [9] | mortality at 200 ppm [10]
